According to US20070203118A1, “SUBSTITUTED TETRAHYDROISOQUINOLINES USED IN THE FORM OF MMP INHIBITORS, METHOD FOR THE PRODUCTION AND USE THEREOF IN THE FORM OF DRUGS” (SANOFI-AVENTIS DEUTSCHLAND GMBH, priority 2004, published 2007):

Biological target: T1, catalytic domain of human gelatinase-A (MMP-9) (Homo sapiens, UniProt P14780)
T1 construct: Determination of the Enzymatic Activity of the Catalytic Domain of Human Gelatinase-A (MMP-9); purchased Roche, Mannheim
Test: Enzymatic activity of the catalytic domain of human gelatinase (MMP-9), fluorogenic substrate
Format: biochemical
Settings: stated in the text
Procedure: Determination of the Enzymatic Activity of the Catalytic Domain of Human Gelatinase-A (MMP-9)
Activation of the proenzyme:
2 parts by volume of proenzyme were incubated with 1 part by volume of APMA solution at 37° C. for 4 hours. The APMA solution was prepared from a 10 mmol/l p-aminophenylmercuric acetate solution in 0.1 mmol/l NaOH by dilution with 3 parts by volume of Tris/HCl buffer pH 7.5 (see below). The pH was adjusted to between 7.0 and 7.5 by adding 1 mmol/l HCl. After activation of the enzyme it was diluted with the Tris/HCl buffer to a concentration of 4.2 mU/ml.
The enzymic activity was measured by incubating 10 μl of enzyme solution with 10 μl of a 3% strength (v/v) buffered dimethyl sulfoxide solution (reaction 1) for 15 minutes. The enzyme inhibitor activity was measured by incubating 10 μl of enzyme solution with 10 μl of a 3% strength (v/v) buffered dimethyl sulfoxide solution which contained the enzyme inhibitor (reaction 2).
The enzymic reaction both in the case of reaction 1 and in the case of reaction 2 was followed after addition of 10 μl of a 3% strength (v/v) aqueous dimethyl sulfoxide solution which contained 0.15 mmol/l of the substrate by fluorescence spectroscopy (328 nm (extinction)/393 nm (emission)).
The enzymic activity has been presented as increase in extinction/minute.
The effect of the inhibitor was calculated as percentage inhibition by the following formula: % inhibition=100−[(increase in extinction/minute in reaction 2)/(increase in extinction/minute in reaction 1)×100].
The IC50, which is the concentration of inhibitor which is necessary for 50% inhibition of the enzymic activity, was determined graphically by plotting the percentage inhibitions at various inhibitor concentrations.
The buffer solution contained 0.05% Brij (Sigma, Deisenhofen, Germany) and 0.1 mol/l Tris/HCl, 0.1 mol/l NaCl, 0.01 mol/l CaCl2 (pH=7.5). The enzyme solution contained 4.2 mU/ml of the enzyme domain. The substrate solution contained 0.15 mmol/l of the fluorogenic substrate (7-methoxycoumarin-4-yl)acetyl-Pro-Leu-Gly-Leu-3-(2′,4′-dinitrophenyl)-L-2,3-diaminopropionyl-Ala-Arg-NH2 (Bachem, Heidelberg, Germany).

T1 sequence (P14780 107-707 limits assumed): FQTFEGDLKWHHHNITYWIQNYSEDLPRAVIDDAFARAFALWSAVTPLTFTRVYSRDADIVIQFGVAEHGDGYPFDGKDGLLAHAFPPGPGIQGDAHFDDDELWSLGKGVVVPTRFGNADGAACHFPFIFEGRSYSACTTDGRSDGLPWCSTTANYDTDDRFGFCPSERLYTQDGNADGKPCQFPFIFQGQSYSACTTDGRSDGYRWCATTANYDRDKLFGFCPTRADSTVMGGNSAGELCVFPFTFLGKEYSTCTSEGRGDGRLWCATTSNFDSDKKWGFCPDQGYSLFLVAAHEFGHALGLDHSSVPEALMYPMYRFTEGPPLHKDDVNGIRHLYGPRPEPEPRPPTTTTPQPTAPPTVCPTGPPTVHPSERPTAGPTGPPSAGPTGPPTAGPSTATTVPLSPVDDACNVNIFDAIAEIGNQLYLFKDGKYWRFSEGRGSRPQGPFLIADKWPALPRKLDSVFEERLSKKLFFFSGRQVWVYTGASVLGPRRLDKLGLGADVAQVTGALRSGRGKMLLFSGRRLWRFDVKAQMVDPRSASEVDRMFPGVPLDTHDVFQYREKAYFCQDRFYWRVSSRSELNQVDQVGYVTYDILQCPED

Structure (SMILES)	ratio of MMP1 to MMP9 inhibition
COc1ccc(Oc2ccc(S(=O)(=O)N3CCc4ccccc4C3C(=O)NO)cc2)cc1 (centres unmarked)	60
COc1ccc(S(=O)(=O)N2CCc3ccccc3C2C(=O)NO)cc1 (centres unmarked) [reference compound]	3.7
